Measured values published in ChEMBL document CHEMBL1201862, “PubChem BioAssay data set” (2004).
The source made the active and inactive calls.

What was measured:
[1] = target: T1, Hexokinase HKDC1 (Homo sapiens, UniProt Q2TB90); assay: activation of HKDC1 glucose phosphorylation – biochemical, W721R variant, dose response (AID 504730); assay type: functional
T1 sequence (Q2TB90 whole entry): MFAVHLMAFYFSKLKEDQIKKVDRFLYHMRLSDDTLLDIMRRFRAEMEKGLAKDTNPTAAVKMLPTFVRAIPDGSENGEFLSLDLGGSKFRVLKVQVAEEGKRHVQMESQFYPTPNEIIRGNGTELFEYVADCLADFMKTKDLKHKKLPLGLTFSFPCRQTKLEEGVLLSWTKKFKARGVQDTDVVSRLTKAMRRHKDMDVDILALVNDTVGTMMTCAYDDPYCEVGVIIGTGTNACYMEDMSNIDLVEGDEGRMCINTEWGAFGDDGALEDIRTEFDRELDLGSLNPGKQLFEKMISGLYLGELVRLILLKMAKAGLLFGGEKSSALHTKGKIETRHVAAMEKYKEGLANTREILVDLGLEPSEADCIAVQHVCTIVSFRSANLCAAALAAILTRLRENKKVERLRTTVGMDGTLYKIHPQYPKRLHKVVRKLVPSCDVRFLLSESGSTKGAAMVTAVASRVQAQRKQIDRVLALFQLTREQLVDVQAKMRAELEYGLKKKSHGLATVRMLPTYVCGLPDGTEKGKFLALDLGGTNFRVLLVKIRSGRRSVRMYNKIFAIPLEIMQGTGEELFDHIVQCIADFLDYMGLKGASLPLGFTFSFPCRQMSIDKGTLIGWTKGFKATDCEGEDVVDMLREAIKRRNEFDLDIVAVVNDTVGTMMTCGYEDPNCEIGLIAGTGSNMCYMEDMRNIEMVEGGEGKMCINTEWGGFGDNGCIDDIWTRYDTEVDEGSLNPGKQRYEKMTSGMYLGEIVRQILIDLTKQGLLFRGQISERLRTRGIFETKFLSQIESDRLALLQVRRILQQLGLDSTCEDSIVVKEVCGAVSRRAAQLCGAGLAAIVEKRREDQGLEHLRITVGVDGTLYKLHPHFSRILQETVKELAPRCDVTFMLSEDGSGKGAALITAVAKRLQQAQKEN

[2] = target: Hexokinase-1 (Homo sapiens, UniProt P19367); assay: HK1 enzyme activation by HKDC1 hits – biochemical, selectivity assay for HKDC1 activator project, dose response (AID 504762); assay type: functional
Sequence of Hexokinase-1 (P19367 whole entry): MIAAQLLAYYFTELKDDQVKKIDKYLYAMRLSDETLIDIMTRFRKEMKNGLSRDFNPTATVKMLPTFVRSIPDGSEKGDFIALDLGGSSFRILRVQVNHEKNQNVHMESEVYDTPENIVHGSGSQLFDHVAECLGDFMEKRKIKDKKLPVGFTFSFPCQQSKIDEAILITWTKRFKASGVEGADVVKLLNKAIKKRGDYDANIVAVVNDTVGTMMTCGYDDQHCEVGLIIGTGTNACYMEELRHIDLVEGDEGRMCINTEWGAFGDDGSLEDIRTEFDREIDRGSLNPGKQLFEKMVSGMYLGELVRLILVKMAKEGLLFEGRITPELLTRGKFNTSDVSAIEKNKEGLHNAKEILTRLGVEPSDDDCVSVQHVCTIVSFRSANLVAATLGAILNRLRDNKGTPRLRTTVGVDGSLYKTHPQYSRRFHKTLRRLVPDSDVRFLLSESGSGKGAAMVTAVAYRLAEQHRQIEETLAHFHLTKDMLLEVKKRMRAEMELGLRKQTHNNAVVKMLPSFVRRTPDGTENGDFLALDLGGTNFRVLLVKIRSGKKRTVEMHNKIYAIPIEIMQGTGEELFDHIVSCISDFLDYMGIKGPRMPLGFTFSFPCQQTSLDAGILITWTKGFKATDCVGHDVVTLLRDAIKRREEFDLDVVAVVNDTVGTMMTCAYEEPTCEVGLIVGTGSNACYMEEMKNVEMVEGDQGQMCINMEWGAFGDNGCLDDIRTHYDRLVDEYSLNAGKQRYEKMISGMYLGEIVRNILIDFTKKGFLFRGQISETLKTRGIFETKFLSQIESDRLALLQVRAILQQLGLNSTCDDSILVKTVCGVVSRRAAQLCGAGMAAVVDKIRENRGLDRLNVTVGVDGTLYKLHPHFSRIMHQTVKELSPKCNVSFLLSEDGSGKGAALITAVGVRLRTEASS

[3] = target: Aminopeptidase N (Plasmodium falciparum FcB1/Columbia, UniProt O96935); assay: malaria alanyl aminopeptidase activity blockers – biochemical, fluorogenic H-Leu-NHMec substrate, 1536-well (AID 1445); set-up: species or system Plasmodium falciparum 3D7, 3D7
[4] = target: Large T antigen (Simian virus 40, UniProt P03070); assay type: functional, Betapolyomavirus macacae;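 further: Confirmatory-stage PubChem screen for compounds that inhibit SV40 T antigen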
Sequence of Large T antigen (P03070 whole entry): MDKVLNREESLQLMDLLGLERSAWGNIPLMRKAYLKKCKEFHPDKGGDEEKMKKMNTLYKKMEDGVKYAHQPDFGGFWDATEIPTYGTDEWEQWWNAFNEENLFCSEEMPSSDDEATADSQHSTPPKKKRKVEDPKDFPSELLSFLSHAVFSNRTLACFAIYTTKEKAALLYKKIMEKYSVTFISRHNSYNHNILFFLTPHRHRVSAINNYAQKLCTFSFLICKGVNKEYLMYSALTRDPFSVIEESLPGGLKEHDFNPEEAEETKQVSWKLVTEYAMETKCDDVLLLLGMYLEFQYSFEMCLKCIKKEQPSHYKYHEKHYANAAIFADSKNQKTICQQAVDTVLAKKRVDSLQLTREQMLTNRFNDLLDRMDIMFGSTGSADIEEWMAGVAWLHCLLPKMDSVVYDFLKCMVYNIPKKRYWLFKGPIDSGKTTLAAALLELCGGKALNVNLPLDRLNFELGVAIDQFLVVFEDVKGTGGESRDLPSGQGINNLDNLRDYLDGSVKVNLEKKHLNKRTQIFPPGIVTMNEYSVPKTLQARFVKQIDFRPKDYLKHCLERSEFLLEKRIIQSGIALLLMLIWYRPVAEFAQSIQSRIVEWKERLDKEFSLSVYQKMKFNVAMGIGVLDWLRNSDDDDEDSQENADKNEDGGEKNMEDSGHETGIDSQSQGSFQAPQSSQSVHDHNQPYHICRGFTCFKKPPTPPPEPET

[5] = target: T2, Calpain-2 catalytic subunit (Sus scrofa, UniProt P43367); assay: m-calpain protease blockers, concentration series – biochemical, fluorogenic peptide substrate, dose response (AID 1420); assay type: functional
T2 sequence (P43367 whole entry): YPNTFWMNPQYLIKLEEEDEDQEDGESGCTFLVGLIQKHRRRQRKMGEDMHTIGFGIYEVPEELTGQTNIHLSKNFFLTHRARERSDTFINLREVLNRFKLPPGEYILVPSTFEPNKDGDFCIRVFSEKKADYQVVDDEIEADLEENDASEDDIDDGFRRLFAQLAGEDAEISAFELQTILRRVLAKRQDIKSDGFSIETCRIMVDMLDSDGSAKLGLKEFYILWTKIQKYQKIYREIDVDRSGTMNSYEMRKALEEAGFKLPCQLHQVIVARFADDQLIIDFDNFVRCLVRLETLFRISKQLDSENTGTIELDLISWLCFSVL

[6] = target: Bifunctional protein GlmU (Mycobacterium tuberculosis, UniProt P9WMN3); assay: Inhibitors of Mycobacterial Glucosamine-1-phosphate acetyl transferase (GlmU). Secondary screen.; set-up: species or system Mycobacterium tuberculosis H37Rv
[7] = target: Induced myeloid leukemia cell differentiation protein Mcl-1 (Homo sapiens, UniProt Q07820); assay type: functional
[8] = target: Intestinal-type alkaline phosphatase (Mus musculus, UniProt P24822); assay: PubChem AID 488785; assay type: functional
[9] = target: T3, Alkaline phosphatase, tissue-nonspecific isozyme (Homo sapiens, UniProt P05186); assay: TNAP enzyme inhibition by screening hits, dose response, selectivity assay for mouse IAP inhibitor project, biochemical, human TNAP, uHTS hits (AID 488906); assay type: functional
T3 sequence (P05186 whole entry): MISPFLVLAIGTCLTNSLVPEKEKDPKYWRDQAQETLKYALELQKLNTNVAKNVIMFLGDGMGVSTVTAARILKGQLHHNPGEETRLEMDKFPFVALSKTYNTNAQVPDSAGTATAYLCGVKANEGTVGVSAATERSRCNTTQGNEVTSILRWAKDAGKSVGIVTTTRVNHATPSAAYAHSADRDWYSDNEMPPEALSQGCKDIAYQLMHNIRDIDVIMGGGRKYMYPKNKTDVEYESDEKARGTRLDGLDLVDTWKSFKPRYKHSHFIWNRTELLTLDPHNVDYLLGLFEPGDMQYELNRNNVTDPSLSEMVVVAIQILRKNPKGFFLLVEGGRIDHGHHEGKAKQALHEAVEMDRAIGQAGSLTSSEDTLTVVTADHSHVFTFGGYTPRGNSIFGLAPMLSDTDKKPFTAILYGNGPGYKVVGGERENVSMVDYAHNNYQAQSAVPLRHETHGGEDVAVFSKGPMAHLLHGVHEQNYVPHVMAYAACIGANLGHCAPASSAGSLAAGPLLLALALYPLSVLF

[10] = target: Intestinal-type alkaline phosphatase (Homo sapiens, UniProt P09923); assay: inhibition of human intestinal alkaline phosphatase – biochemical, dose response (AID 488876); assay type: functional
Sequence of Intestinal-type alkaline phosphatase (Homo sapiens, UniProt P09923) (P09923 whole entry): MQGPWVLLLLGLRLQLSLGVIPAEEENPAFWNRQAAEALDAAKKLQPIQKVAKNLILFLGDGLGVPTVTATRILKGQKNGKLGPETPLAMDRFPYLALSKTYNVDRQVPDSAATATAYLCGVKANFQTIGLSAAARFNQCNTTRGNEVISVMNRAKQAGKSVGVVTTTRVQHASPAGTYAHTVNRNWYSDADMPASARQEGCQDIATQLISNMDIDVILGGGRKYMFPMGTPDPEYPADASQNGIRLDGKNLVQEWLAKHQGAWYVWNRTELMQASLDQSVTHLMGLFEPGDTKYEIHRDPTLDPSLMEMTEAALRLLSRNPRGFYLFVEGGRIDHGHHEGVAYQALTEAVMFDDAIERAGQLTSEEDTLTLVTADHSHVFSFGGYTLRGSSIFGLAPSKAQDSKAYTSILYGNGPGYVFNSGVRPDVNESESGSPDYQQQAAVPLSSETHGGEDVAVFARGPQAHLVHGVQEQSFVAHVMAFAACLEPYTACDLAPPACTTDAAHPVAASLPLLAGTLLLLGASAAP

[11] = target: Kappa-type opioid receptor (Homo sapiens, UniProt P41145); assay: SAR analysis of small molecule agonists of the kappa opioid receptor via a luminescent beta-arrestin assay - Set 3. [Related pubchem assays (depositor defined):AID1777, AID1785, AID1786, AID1966, AID2133, AID2136, AID2284, AID2500]; assay type: functional
Sequence of Kappa-type opioid receptor (P41145 whole entry): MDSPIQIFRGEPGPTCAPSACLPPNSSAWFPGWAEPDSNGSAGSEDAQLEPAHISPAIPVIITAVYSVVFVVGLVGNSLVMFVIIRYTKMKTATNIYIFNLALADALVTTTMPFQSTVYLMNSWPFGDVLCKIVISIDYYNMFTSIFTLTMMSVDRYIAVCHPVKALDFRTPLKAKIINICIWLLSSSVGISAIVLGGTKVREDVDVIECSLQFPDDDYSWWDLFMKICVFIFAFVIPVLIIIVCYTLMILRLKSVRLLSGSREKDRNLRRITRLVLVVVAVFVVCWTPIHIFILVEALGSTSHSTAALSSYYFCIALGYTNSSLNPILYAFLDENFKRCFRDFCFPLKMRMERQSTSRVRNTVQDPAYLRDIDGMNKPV

[12] = target: T4, G-protein coupled receptor 35 (Homo sapiens, UniProt Q9HC97); assay: SAR analysis of Agonists of the GPR35 Receptor using an Image-Based Assay - Set 4. [Related pubchem assays (depositor defined):AID2013, AID2026]; assay type: functional
T4 sequence (Q9HC97 whole entry): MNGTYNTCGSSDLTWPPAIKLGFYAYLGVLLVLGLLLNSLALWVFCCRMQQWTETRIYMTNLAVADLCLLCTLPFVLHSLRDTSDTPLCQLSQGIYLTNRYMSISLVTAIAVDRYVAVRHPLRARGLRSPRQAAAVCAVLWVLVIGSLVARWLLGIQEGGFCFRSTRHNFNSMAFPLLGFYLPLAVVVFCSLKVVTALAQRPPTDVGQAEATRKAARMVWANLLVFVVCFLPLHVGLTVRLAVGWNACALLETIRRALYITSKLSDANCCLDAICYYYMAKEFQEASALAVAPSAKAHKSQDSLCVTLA

[13] = target: T5, Cannabinoid receptor 1 (Homo sapiens, UniProt P21554); assay: SAR analysis of agonists of the Cannabinoid Receptor 1 using an Image-Based Assay - Set 4. [Related pubchem assays (depositor defined):AID2013, AID2026]; assay type: functional
T5 sequence (P21554 whole entry): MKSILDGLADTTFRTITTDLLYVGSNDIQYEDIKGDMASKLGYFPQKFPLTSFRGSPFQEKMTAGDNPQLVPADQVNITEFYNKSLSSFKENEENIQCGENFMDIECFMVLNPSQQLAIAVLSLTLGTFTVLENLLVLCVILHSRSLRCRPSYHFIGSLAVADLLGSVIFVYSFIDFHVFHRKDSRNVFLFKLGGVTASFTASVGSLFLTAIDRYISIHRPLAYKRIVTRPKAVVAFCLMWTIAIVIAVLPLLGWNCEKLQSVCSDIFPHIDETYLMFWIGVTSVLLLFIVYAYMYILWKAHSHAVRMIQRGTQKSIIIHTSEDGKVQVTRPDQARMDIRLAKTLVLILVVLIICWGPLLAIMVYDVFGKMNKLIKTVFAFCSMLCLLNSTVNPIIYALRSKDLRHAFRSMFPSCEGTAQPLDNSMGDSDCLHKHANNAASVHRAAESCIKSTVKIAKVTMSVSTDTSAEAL

[14] = target: T4, G-protein coupled receptor 35; assay: SAR analysis of Antagonists of the GPR35 Receptor using an Image-Based Assay - Set 6. [Related pubchem assays (depositor defined):AID2013, AID2026]; assay type: functional
[15] = target: T5, Cannabinoid receptor 1; assay: SAR analysis of antagonists of the Cannabinoid Receptor 1 using an Image-Based Assay - Set 4. [Related pubchem assays (depositor defined):AID2013, AID2026]; assay type: functional
[16] = target: T6, G-protein coupled receptor 55 (Homo sapiens, UniProt Q9Y2T6); assay: SAR Analysis of Selective Antagonists of GPR55 using an Image-Based Assay - Set 4. [Related pubchem assays (depositor defined):AID2013, AID2026]; assay type: functional
T6 sequence (Q9Y2T6 whole entry): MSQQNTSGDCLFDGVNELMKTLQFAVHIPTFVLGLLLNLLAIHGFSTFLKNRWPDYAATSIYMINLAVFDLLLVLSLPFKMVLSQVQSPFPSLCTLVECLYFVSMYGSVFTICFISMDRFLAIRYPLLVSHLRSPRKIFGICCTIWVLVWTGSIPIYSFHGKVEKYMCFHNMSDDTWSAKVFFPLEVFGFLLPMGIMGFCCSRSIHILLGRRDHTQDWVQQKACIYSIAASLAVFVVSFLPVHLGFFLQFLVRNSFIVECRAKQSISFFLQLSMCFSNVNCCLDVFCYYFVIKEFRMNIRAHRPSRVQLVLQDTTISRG

[17] = target: T7, Cannabinoid receptor 2 (Homo sapiens, UniProt P34972); assay: SAR analysis of antagonists of the Cannabinoid Receptor 2 using an Image-Based Assay - Set 3. [Related pubchem assays (depositor defined):AID2013, AID2026]; assay type: functional
T7 sequence (P34972 whole entry): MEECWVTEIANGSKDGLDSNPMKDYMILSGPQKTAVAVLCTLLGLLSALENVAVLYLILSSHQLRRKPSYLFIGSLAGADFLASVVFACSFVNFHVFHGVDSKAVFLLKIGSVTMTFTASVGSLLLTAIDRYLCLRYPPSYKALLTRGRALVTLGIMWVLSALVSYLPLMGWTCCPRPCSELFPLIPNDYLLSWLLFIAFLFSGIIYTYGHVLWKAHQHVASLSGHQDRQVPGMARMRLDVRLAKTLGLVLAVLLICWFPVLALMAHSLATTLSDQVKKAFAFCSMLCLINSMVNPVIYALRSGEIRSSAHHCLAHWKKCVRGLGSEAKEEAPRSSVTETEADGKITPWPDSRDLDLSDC

[18] = target: T7, Cannabinoid receptor 2; assay: SAR analysis of agonists of the Cannabinoid Receptor 2 using an Image-Based Assay - Set 3. [Related pubchem assays (depositor defined):AID2013, AID2026]; assay type: functional
[19] = target: Lysine-specific demethylase 4C (Homo sapiens, UniProt Q9H3R0); assay: inhibition of JMJD2C H3K9me3 demethylation – biochemical, DELFIA europium, cherry-picked samples, dose response (AID 488835); assay type: functional
[20] = target: T6, G-protein coupled receptor 55; assay: blockers of GPR55 signalling, imaged – imaging, image-based, counter-screen for GPR35 antagonist project, SAR follow-up (AID 2397); assay type: functional
[21] = target: Signal transducer and activator of transcription 3 (Homo sapiens, UniProt P40763); assay: STAT3 blockade with qPCR and toxicity readouts – cell-based, STAT1 panel, cytotoxicity, late-stage follow-up, panel member STAT3 Inhibition (AID 2078)
Sequence of Signal transducer and activator of transcription 3 (P40763 whole entry): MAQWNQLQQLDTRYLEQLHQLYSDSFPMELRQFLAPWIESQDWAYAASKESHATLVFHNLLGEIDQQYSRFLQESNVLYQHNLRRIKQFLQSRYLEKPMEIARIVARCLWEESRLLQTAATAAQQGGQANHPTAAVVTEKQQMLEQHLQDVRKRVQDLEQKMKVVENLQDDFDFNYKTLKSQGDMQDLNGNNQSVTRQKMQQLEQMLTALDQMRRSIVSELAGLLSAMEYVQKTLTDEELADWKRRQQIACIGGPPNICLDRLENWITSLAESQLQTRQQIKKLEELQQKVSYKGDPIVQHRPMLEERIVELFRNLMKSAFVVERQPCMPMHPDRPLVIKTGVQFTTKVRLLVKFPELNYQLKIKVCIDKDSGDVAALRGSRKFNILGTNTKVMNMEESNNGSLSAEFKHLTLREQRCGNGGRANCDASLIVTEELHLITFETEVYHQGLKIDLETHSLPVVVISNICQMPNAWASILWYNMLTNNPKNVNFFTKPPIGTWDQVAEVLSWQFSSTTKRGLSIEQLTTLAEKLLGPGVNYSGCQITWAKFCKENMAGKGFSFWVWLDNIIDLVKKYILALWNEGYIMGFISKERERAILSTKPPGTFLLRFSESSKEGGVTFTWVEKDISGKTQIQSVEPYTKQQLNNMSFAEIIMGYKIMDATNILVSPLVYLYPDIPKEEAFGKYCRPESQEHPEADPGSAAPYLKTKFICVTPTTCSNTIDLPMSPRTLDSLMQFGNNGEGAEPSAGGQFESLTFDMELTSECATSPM

[22] = target: Signal transducer and activator of transcription 1-alpha/beta (Homo sapiens, UniProt P42224); assay: STAT3 blockade with qPCR and toxicity readouts – cell-based, STAT1 panel, cytotoxicity, late-stage follow-up, panel member STAT1 Inhibition (AID 2078)
[23] = Luminescence Cell-Based Dose Response HTS to Identify Inhibitors of Luciferase Translation or Activity in H4-C Neuroglioblastoma Cells. [Related pubchem assays: 1813 (Primary HTS), 1827 (Project Summary)]; assay type: functional
[24] = Luminescence Cell-Based Dose Response HTS to Identify Activators of Luciferase Translation or Activity in H4-C Neuroglioblastoma Cells. [Related pubchem assays: 1829 (Project Summary), 1814 (Primary HTS)]; assay type: functional
[25] = Luminescence Cell-Based Dose Retest to Confirm Activators of 5'UTR Stem-Loop Driven Alpha-Synuclein mRNA Translation in H4 Neuroglioblastoma Cells. [Related pubchem assays (depositor defined):AID1813, AID1829]; assay type: functional
[26] = Luminescence Cell-Based Dose Response HTS to Identify Activators of 5'UTR Stem-Loop Driven Prion Protein mRNA Translation in H4-C Neuroglioblastoma Cells. [Related pubchem assays: 1829 (Project Summary), 1814 (Primary HTS)]; assay type: functional
[27] = Luminescence Cell-Based Dose HTS Response to Identify Inhibitors of 5'UTR Stem-Loop Driven Prion Protein mRNA Translation in H4-C Neuroglioblastoma Cells. [Related pubchem assays (depositor defined):AID1814, AID1827]; assay type: functional
[28] = Luminescence Cell-Based Dose Confirmation HTS to Identify Inhibitors of 5'UTR Stem-Loop Driven Alpha-Synuclein mRNA Translation in H4 Neuroglioblastoma Cells. [Related pubchem assays: 1827 (Project Summary), 1813 (Primary HTS)]; assay type: functional
[29] = target: T8, Bcl-2-related protein A1 (Mus musculus, UniProt Q07440); assay type: functional;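 further: confirmatory dose–response counterscreen on Bfl-1, used to check hits from a UBC13 polyubiquitin inhibitor campaign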
T8 sequence (Q07440 whole entry): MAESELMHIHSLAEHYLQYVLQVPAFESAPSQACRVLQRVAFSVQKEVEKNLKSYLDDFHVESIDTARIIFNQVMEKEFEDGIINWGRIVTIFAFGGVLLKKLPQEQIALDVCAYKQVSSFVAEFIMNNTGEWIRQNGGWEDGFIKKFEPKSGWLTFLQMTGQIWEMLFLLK

[30] = target: T9, Ubiquitin-conjugating enzyme E2 N (Homo sapiens, UniProt P61088); assay type: functional
T9 sequence (P61088 whole entry): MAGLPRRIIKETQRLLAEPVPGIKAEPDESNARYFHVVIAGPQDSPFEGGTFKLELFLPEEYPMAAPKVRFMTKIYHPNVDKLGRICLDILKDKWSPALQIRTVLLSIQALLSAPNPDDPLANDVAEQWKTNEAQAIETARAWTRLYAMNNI

[31] = target: T9, Ubiquitin-conjugating enzyme E2 N; assay type: functional; remark: listed apart in the source

Compound: CCc1c(C)c(C#N)c2nc3ccccc3n2c1NC
- EC50 [1]: 44.8 µM (inactive)
- EC50 [2]: 21.1 µM (inactive)

Compound: O=C(NN1C(=O)/C(=C/C=C/c2ccco2)SC1=S)c1ccccc1O
- IC50 [3]: 73.5 µM (active)
- IC50 [4]: 18.8 µM (active)
- IC50 [5]: 47.6 µM (not active)
- IC50 [6]: 80.6 µM (active)
- IC50 [7]: 2.42 µM (active)
- IC50 [8]: 15.8 µM (active)
- IC50 [9]: 25.9 µM (active)
- IC50 [10]: 30.7 µM (active)

Compound: Clc1ccccc1Cn1c(SCc2ccccc2)nnc1-c1ccccn1
- EC50 [11]: > 20 µM (inactive)

Compound: O=C(Cc1ccc2c(c1)OCO2)N1CCC(n2nc(-c3ccccc3)oc2=O)CC1
- EC50 [12]: > 32 µM (inactive)
- EC50 [13]: > 32 µM (inactive)
- IC50 [14]: > 32 µM (inactive)
- IC50 [15]: 15.8 µM (inactive)
- IC50 [16]: > 32 µM (inactive)
- IC50 [17]: > 32 µM (inactive)
- EC50 [18]: > 32 µM (inactive)

Compound: CN1C(=O)N(C)C(=O)C2(Cc3ccccc3N3CCCC32)C1=O (stereo unspecified)
- AC50 [19]: 14.2 µM (active)

Compound: Clc1ccc(Cn2ncc3c(N4CCN(c5cccc(Cl)c5)CC4)ncnc32)cc1
- IC50 [20]: > 32 µM (inactive)

Compound: O=C(c1ccc(Cl)cc1)C1CCN(c2ncnc3sccc23)CC1
- IC50 [21]: 837 nM (active)
- IC50 [22]: > 55.7 µM (inactive)

Compound: COC(=O)c1c(NC(=O)c2ccc([N+](=O)[O-])o2)sc2c1CCN(C(C)C)C2
- EC50 [23]: 1.33 µM (active)
- EC50 [24]: 2.12 µM (inconclusive)
- EC50 [25]: 1.88 µM (inconclusive)
- EC50 [26]: 2.23 µM (inconclusive)
- EC50 [27]: 2.94 µM (active)
- EC50 [28]: 3.35 µM (active)

Compound: CN(C)CCCN(C(=O)c1ccc(S(=O)(=O)N2CCCCCC2)cc1)c1nc2ccc(Br)cc2s1
- IC50 [29]: > 20 µM (inactive)
- IC50 [30]: 13.4 µM (active)
- IC50 [31]: 10.3 µM (active)
